One may read the CC50 as the concentration that lowers cell viability or growth by half. A high value points to better tolerance by the cells.

The record followed here is publication PMC9921329, “Semisynthetic Sesquiterpene Lactones Generated by the Sensibility of Glaucolide B to Lewis and Brønsted–Lowry Acids and Bases: Cytotoxicity and Anti-Inflammatory Activities” (Molecules, 2023).

Data set [1] concerns HUVEC (human umbilical vein endothelial cells). Briefly: MTT cytotoxicity, non-tumoral endothelial cells. To be noted: 24 h. Format: cell-based. The procedure: (§1) To evaluate the potential antitumoral activity of the compounds, the MTT [3-(4,5-dimethyl-2-thiazolyl)-2,5-diphenyl-2H-tetrazolium bromide] method was used to determine the cell viability of SK-MEL-28 (human melanoma cell line), NCI-H460 (human lung carcinoma cell line), SF295 (human glioblastoma cell line), and HUVEC (human umbilical vein endothelial cells) line. Cell viability analysis of murine macrophage J774A.1 was conducted using a resazurin-based cytotoxicity assay (Alamar blue®). All cell lines were acquired from the BCRJ (Rio de Janeiro Cell Bank, Federal University of Rio de Janeiro, Brazil). The cell lines were cultivated in RPMI-1640 or DMEM medium, supplemented with 1.5 g/L of sodium bicarbonate, 10 mM of HEPES, pH 7.4, 100 U/mL of penicillin G, 100 μg/mL of streptomycin, and 10% fetal calf serum at 37 °C in a humidified atmosphere consisting of 95% air and 5% CO2 cultures, and greater than 95% of viable cells in trypan blue exclusion tests were used for the experiments. Therefore, cells were seeded (1 × 10^4/well) in 96-well plates and incubated with increasing concentrations of the compounds for 24 h. After incubation, the former culture medium was replaced with a fresh culture medium with 5 mg/mL of MTT and with 0.1 mg/mL of resazurin for 2 h at 37 °C. MTT formazan crystals were dissolved in DMSO, and the absorbance of each well was measured at 540 nm, using a micro-well system reader. For the control group of each cell line, cells were incubated without the compounds and considered to have 100% cell viability. MTT formazan crystals were dissolved in DMSO, and absorbance was measured at 540 nm using a microplate reader (ELX800, Biotek, Winooski, VT, USA). The half-maximal cytotoxic concentration (CC50) values were calculated from a Hill concentration–response curve. Results were expressed as the mean ± SD of three experiments. The selectivity index (SI) was calculated via the ratio between the CC50 of non-tumoral cells and the tumoral cell lines. […] For the resazurin assay, fluorescence was measured at 1 h intervals using a plate multi-reader (Infinite Multireader m200 Tecan) at 530–590 nm. Nonlinear regression of each fraction versus percentage cell viability was performed to obtain a 10% toxicity concentration (a concentration causing 90% cell viability) using GraphPad Prism 8.0 software (GraphPad Software, San Diego, CA, USA).

Data set [2] concerns NCI-H460 (human lung carcinoma cell line). Briefly: MTT cell viability, human lung carcinoma cells. In kind it is cell-based. To be noted: 24 h incubation, mean ± SD (n = 3), test concentration not given. The procedure:
as §1

Data set [3] deals with SF295 (human glioblastoma cell line). Briefly: MTT cell viability, human glioblastoma cells. In kind it is cell-based. The note with it: 24 h incubation, mean ± SD (n = 3), test concentration not given. The procedure:
as §1

Data set [4] relates to SK-MEL-28 (human melanoma cell line). Briefly: MTT cell viability / cytotoxicity, human melanoma cells. Format: cell-based. To be noted: for CC50 / Viability (%) SK-MEL-28: MTT; for CC50: 24 h, half-maximal cytotoxic concentration; for Viability (%) SK-MEL-28: 24 h incubation, mean ± SD (n = 3), test concentration not given. The procedure:
as §1

Data set [5] in a line: MTT cytotoxicity, non-tumoral endothelial cells. Format: cell-based, human. To be noted: human, HUVEC cells (non-tumoral), pH 7.4. The procedure:
as §1

The test system of data set [6] is LPS-stimulated M1 macrophages J774A.1 (NOx). Briefly: Total nitrite nitrate (NOx) release from LPS-stimulated macrophages (Griess). Format: cell-based, murine. The procedure: (§2) The in vitro anti-inflammatory activity was performed in murine macrophage J774A.1 and analyzed after modifications to the protocol previously described by […] and coworkers. The evaluation consisted of measuring the production of nitrite through an indicator of NO synthesis in supernatants from LPS-activated macrophages. A number of 1 × 10^5 cells/well were seeded in 96-well plates for 24 h, after which time the culture medium was changed, and the CC10 concentration (Figure S70, found in the Supplementary Materials) of each compound was added to the medium containing DMEM supplemented with 10% FBS. After 15 min, macrophages were stimulated with 10 μg/mL of LPS and incubated for 24 h to obtain a proinflammatory M1-phenotype. Subsequently, supernatants were collected and total nitrite nitrate (NOx) was measured by adding 100 μL of Griess' reagent (1% sulfanilamide and 0.1% N-(1-naphthyl) ethylenediamine in 0.5% phosphoric acid). Absorbance was determined with a microplate reader (ELX800, BioTek, Winooski, VT, USA) at 540 nm. In addition, the proinflammatory cytokine IL-6 was determined using an enzyme-linked immunosorbent assay (ELISA) (BD Bioscience, San Jose, CA, USA) according to the manufacturer's instructions.
On the technique in general: The Griess reaction detects nitrite, a stable product of nitric oxide.

For data set [7], the system named is murine macrophage J774A.1. Briefly: Resazurin-based cytotoxicity assay (Alamar blue) in macrophages. Format: cell-based. To be noted: J774A.1, Figure S70. The procedure:
To evaluate the potential antitumoral activity of the compounds, the MTT [3-(4,5-dimethyl-2-thiazolyl)-2,5-diphenyl-2H-tetrazolium bromide] method was used to determine the cell viability of SK-MEL-28 (human melanoma cell line), NCI-H460 (human lung carcinoma cell line), SF295 (human glioblastoma cell line), and HUVEC (human umbilical vein endothelial cells) line. Cell viability analysis of murine macrophage J774A.1 was conducted using a resazurin-based cytotoxicity assay (Alamar blue®). All cell lines were acquired from the BCRJ (Rio de Janeiro Cell Bank, Federal University of Rio de Janeiro, Brazil). […] MTT formazan crystals were dissolved in DMSO, and the absorbance of each well was measured at 540 nm, using a micro-well system reader. […] MTT formazan crystals were dissolved in DMSO, and absorbance was measured at 540 nm using a microplate reader (ELX800, Biotek, Winooski, VT, USA). The half-maximal cytotoxic concentration (CC50) values were calculated from a Hill concentration–response curve. Results were expressed as the mean ± SD of three experiments. The selectivity index (SI) was calculated via the ratio between the CC50 of non-tumoral cells and the tumoral cell lines. […] For the resazurin assay, fluorescence was measured at 1 h intervals using a plate multi-reader (Infinite Multireader m200 Tecan) at 530–590 nm. […]
For orientation: Resazurin is reduced to fluorescent resorufin, in cell work by metabolically active cells.

In data set [8] the test system is LPS-stimulated M1 macrophages J774A.1 (IL-6). Briefly: Interleukin-6 release from LPS-stimulated macrophages (ELISA). Format: cell-based, murine. The procedure:
as §2
On the technique in general: An ELISA detects its analyte on a solid surface through an enzyme-linked reagent.

Where [9] appears, read: compound at CC10, pre-treatment 15 min, LPS 10 μg/mL, 24 h.

With “glaucolide A [Compound 11, reference compound]”, the CC50 in data set [1] amounted to 20.4 µM; in data set [4] it was 14.6 µM. Further, the “Viability (%) NCI-H460” value in data set [2] was determined as 95.1 ± 4.6%. Also, the “Viability (%) SF295” value in data set [3] stood at 91.8 ± 3.3%. Also, in data set [4], the “Viability (%) SK-MEL-28” value was 56.3 ± 1.4%.

`CC(=O)OCC1=C2C(OC(C)=O)CC(C)(OC(C)=O)C3(O)CCC(C)(O3)C(OC(C)=O)C2OC1=O` (stereo not shown) [Compound 7a, 5-acetoxy-hirsutinolide] yielded a CC50 at 24 h in data set [5] of 12.7 µM. The “Viability (%) NCI-H460” value in data set [2] worked out at 74.6 ± 1.3%. Further, the “Viability (%) SF295” value in data set [3] is recorded as 86.9 ± 4.3%. Also, in data set [4] (Homo sapiens, SK-MEL-28), the midpoint of cytotoxicity, the CC50, lay at 5 µM. Moreover, the “Viability (%) SK-MEL-28” value in data set [4] turned out to be 17.1 ± 3.3%. The “SI (selectivity index) SK-MEL-28” value in data set [4] (ratio of CC50 of non-tumoral HUVEC cells to CC50 of SK-MEL-28) is 2.5. Also, the “Anti-inflammatory activity, NOx release (in words)” value in data set [6] (compound at CC10, LPS 10 μg/mL) is on record as “strongly reduced”. Also, in data set [6] (setting [9]), the “Reduction of NOx release vs control M1 cells (LPS+ group)” value was approximately 77%. Moreover, the “Cytotoxicity against macrophages (in words)” value in data set [7] was “less cytotoxicity against macrophages”. Besides, in data set [8] (compound at CC10, LPS 10 μg/mL), the “Anti-inflammatory activity, IL-6 release (in words)” value was “strongly reduced”. Also, the “Reduction of IL-6 release vs control M1 cells (LPS+ group)” value in data set [8] (setting [9]) is approximately 77%.
